Data set [1] relates to MEF (mouse). In words: Cytotoxicity in normal cells (MTT). As to conditions: 96 h, Normal cell, 4 days. The data set is classed as cell-based.
The subject of data set [2] is HDF (human). As to the kind of experiment: Cytotoxicity in normal cells (MTT). The data set is classed as cell-based. To be noted: 96 h, Normal cell, 4 days.
The subject of data set [3] is K562. As to the kind of experiment: Anti-proliferative activity test in cancer cells exhibiting multidrug resistance (MTT), parent line. The data set is classed as cell-based. To be noted: Homo sapiens, 96 h, 4 days. The method, then: (§1) HeLa cells (American Type Culture Collection: ATCC, USA), a human cervical cancer cell line, were seeded in a 96-well plate at 3×10^3 cells/well, and the cells were then treated with compounds of Examples or Comparative Example according to the present invention and grown for 2 days. Then, MTT (3-(4,5-dimethylthiazol-2-yl)-2,5-diphenyltetrazolium bromide) reagent was added at 10 μL/well. […] The data shown in Table below are mean values of results obtained by repeating the analysis twice. Specifically, K562 and MCF7 (Bio Evaluation Center, Korea Research Institute of Bioscience and Biotechnology, Korea) and multidrug-resistant cell lines of each of these cell lines, i.e., K562/ADR and MCF7/ADR (Bio Evaluation Center, Korea Research Institute of Bioscience and Biotechnology, Korea), were cultured on microtiter plates (1-3×10^3 cells/well). […] The data shown in Table below are mean values of results obtained by repeating the analysis three times.

Data set [4] relates to MCF7. Described as above. The data set is classed as cell-based. To be noted: Homo sapiens, 96 h, 4 days. The method, then: as §1
The subject of data set [5] is K562/ADR. As to the kind of experiment: Anti-proliferative activity test in cancer cells exhibiting multidrug resistance (MTT). The data set is classed as cell-based. The method, then:
as §1

For data set [6], the system named is MCF7/ADR. Described as above. The data set is classed as cell-based. The method, then: as §1
The subject of data set [7] is HeLa CCL2 cell line. As to the kind of experiment: Effect test on cell cycle progression (propidium iodine, FACS). The data set is classed as cell-based, human.
Data set [8] relates to HeLa CCL2 cells. In words: Wound healing assay. The data set is classed as cell-based, human. To be noted: up to 100 nM, FIGS. 6A and 6B. The method, then:
HeLa CCL2 cells were cultured in 6 wells at 100%, wounded with a yellow tip, and treated with 50 nM and 100 nM of the compound of Example 4. In order to observe the effect of the drug, the degree of cell migration was compared and observed by recording the state of the cells before treatment as images, and comparing the cell state before drug treatment with the state of the cells at 24, 36, and 48 hours post the drug treatment. The concentration of the compound of Example 4 treated with the cells was determined by performing MTT assay.

The test system of data set [9] is HeLa CCL2 cells. As to the kind of experiment: In vitro invasion assay (trans well). The data set is classed as cell-based, human. As to conditions: 10 nM, 50 nM, 100 nM, 250 nM, 16 hours, FIGS. 7A and 7B. The method, then:
In addition, in order to confirm the efficacy of inhibiting cell migration again, an invasion assay was performed. A trans well chamber for a 24-well plate was prepared, and HeLa CCL2 cells at a density of 5×10^4 were put into the upper chamber, treated with 10 nM, 50 nM, 100 nM, and 250 nM of the compound of Example 4, and cultured. Then, after 16 hours, the migrated cells were identified and the number thereof was measured through cell staining.

Data set [10] in a line: Mouse toxicity test (repeated intraperitoneal injection). The data set is classed as in vivo, ICR mice. As to conditions: for Survival rate (%): n = 3, i.p., 10 injections. On the procedure:
All animal experiments and procedures were performed in accordance with ethical standards under the approval of the Institutional Animal Care and Use Committee (IACUC) of the Korea Research Institute of Bioscience and Biotechnology (KRIBB). ICR mice were supplied by Daehan Biolink Co., Ltd (Korea). All mice were housed in sterile animal isolation facilities. All in vivo experiments were performed using 6-8 week old mice.
Acute toxicity test of the compound of Example 4 was performed at the Laboratory Animal Resource Center of the Korea Research Institute of Bioscience and Biotechnology. ICR mice (6-8 weeks old) were acclimatized for up to 10 days before the experiment, and then 3 mice were injected with the drugs. The Example compound was mixed with a solvent and injected intraperitoneally, and after drug treatment, clinical symptoms were observed twice within 24 hours, and additional drug treatment was performed up to 10 times as scheduled. The mice were weighed 5 times as scheduled.
(§2) 100 mg/kg of the compound of Example 4 was dissolved in a solvent (N′,N′-dimethylacetamide/Kolliphor/2-hydroxypropyl-β-cyclodextrin (10% concentration of distilled water solution)=40:10:50). When the concentration became thicker than that, the reaction solution immediately precipitated. The solution in which the compound of Example 4 was dissolved from 12.5 mg/kg to 100 mg/kg was injected into the peritoneal cavity of mice 10 times […] in a volume of 100 μL (see FIG. 8A). All animals survived to the final day, and no particular problems were seen by visual observation (see Table 13 and FIG. 8A).

On the set-up of data set [11]: species or system ICR mice. As to conditions: mouse, in vivo. On the procedure: The experimental apparatus was constructed similarly to that used in the paper described by Reyes-Mendez et al. (2018), and was composed of a black acrylic fence (floor area of […] and wall height of 40 cm). The floor surface was divided into 25 squares each having a size of 10×10 cm. For this experiment, mice were placed on the center of the floor and spontaneous activities thereof were recorded for 7 minutes from the top. After the experiment, the experimental apparatus was thoroughly washed with 30% ethanol. Three observers, unaware whether the drug was treated or not, analyzed the first 5 minutes of recorded video to count the number of squares the mouse passed, and add up the time during which the mouse stayed without moving, and the number of times the mouse was groomed or shaken, and the like. Based on the contents analyzed above, the time during which the mouse stayed in the central zone, speed, and total moving distance were calculated. A case where the two-tailed probability value was less than 0.05 (p<0.05) was considered statistically significant.
No statistically significant experimental groups were found as results of open-field experiments in mice.

The nature of data set [12]: Solubility of the compound in the toxicity-test solvent. As to conditions: N′,N′-dimethylacetamide/Kolliphor/2-hydroxypropyl-β-cyclodextrin (10% in distilled water)=40:10:50; thicker solutions precipitated. The data set is classed as physicochemical. The method, then:
as §2

SMILES strings stand for the structures.

The IC50 is the midpoint of a concentration-inhibition curve. In the case of `CCOCCn1c(Cl)c(/C=N/NC(=O)c2cc3cc(C)ccc3o2)c2ccccc21` [Example 4, (E)-N′-[(2-chloro-1-(2-ethoxyethyl)-1H-indol-3-yl]methylene}-5-methylbenzofuran-2-carbohydrazide], the IC50 in [1] was found to be 4.01 ± 4.58 µM; in data set [2] it was 27 ± 7.89 µM; in [3] it was 0.35 µM; in [4], 0.822 µM; in [5] (Homo sapiens, 96 h, K562/ADR (multidrug-resistant), 4 days, MTT), 0.201 µM; in data set [6] (Homo sapiens, NCI/ADR-RES, 96 h, MCF7/ADR (multidrug-resistant), 4 days, MTT), 0.332 µM. Further, in [7] (Homo sapiens, as stated in text on Table 5), the midpoint of inhibition, the IC50, lay at 0.2 µM. In addition, the “Resistance Factor” value in data set [5] (ratio IC50 K562/ADR to IC50 K562) is given as 0.57; in data set [6] (ratio IC50 MCF7/ADR to IC50 MCF7), 0.40. The “number of cells in G2/M phase as a percentage” value in [7] (0.2 μM, FACS) is recorded as 82.36%. Besides, the “cells stopped in the mitotic phase” value in [7] (16 hours post treatment) is recorded as no less than 80%. For the same compound, in data set [7] (FACS), the “Effect (μM): concentration at which cells were collected in the mitotic phase” value is 0.2 µM. In addition, the “effect on cell growth” value in data set [8] was “did not have a significant effect on cell growth”. For the same compound, in [9], the “cancer metastasis inhibitory effect (migrated cells)” value was “excellent cancer metastasis inhibitory effect”. In addition, the “Survival rate (%)” value in data set [10] (12.5 mg/kg), in data set [10] (25 mg/kg), in data set [10] (50 mg/kg) and in [10] (100 mg/kg) was 100% in each case. Also, the “toxicity on dissection (size and morphology of each organ)” value in data set [10] (intraperitoneally 10 times at 100 mg/kg) is on record as “did not induce serious toxicity”. In addition, the “effect on behavior of mice in open field (time in center zone, speed, total moving distance)” value in [11] was “did not affect the behavior of mice in all groups”. Besides, the “highest concentration dissolved without precipitation” value in data set [12] is 100 mg/kg.

The values above are taken from patent US12612389B2, “Benzofuran-based N-acylhydrazone derivative and pharmaceutical composition comprising same” (KOREA RESEARCH INSTITUTE OF BIOSCIENCE AND BIOTECHNOLOGY, priority 2019, dated 2026).
